Results: patent publication US6358885B1, “Substituted phenylheterocyclic herbicides” (Mississippi State University, priority 1992, dated 2002)

Legend:
Test in all cases: Test B preemergence/postemergence greenhouse plant response rating 0 to 10
giant foxtail = format: in vivo, Setaria faberii; settings: for Plant response rating, Giant foxtail: 0 to 10 scale
In short: (§1)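 Postemergence treatment of plants two to eighteen cm tall ran alongside preemergence treatment of planted seed, each using compound in a non-phytotoxic solvent.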

crabgrass = format: in vivo, Digitaria spp.; settings: for Plant response rating, Crabgrass: 0 to 10 scale
In short: as §1

sorghum = format: in vivo, Sorghum bicolor; settings: for Plant response rating, Sorghum: 0 to 10 scale
In short: as §1

blackgrass = format: in vivo, Alopecurus myosuroides; settings: for Plant response rating, Blackgrass: 0 to 10 scale
In short: as §1

cocklebur = format: in vivo, Xanthium pensylvanicum; settings: for Plant response rating, Cocklebur: 0 to 10 scale
In short: as §1

sugar beet = format: in vivo, Beta vulgaris; settings: for Plant response rating, Sugar beet: 0 to 10 scale
In short: as §1

cheatgrass = format: in vivo, Bromus secalinus; settings: for Plant response rating, Cheatgrass: 0 to 10 scale
In short: as §1

soybean = format: in vivo, Glycine max; settings: for Plant response rating, Soybean: 0 to 10 scale
In short: as §1

rice = format: in vivo, Oryza sativa; settings: for Plant response rating, Rice: 0 to 10 scale
In short: as §1

corn = format: in vivo, Zea mays; settings: for Plant response rating, Corn: 0 to 10 scale
In short: as §1

velvetleaf = format: in vivo, Abutilon theophrasti; settings: for Plant response rating, Velvetleaf: 0 to 10 scale
In short: as §1

purple nutsedge = format: in vivo, Cyperus rotundus; settings: for Plant response rating, Nutsedge: 0 to 10 scale
In short: as §1

barley = format: in vivo, Hordeum vulgare; settings: for Plant response rating, Barley: 0 to 10 scale
In short: as §1

chickweed = format: in vivo, Stellaria media; settings: for Plant response rating, Chickweed: 0 to 10 scale
In short: as §1

bedstraw = format: in vivo, Galium aparine; settings: for Plant response rating, Bedstraw: 0 to 10 scale
In short: as §1

morningglory = format: in vivo, Ipomoea hederacea; settings: for Plant response rating, Morningglory: 0 to 10 scale
In short: as §1

wild oat = format: in vivo, Avena fatua; settings: for Plant response rating, Wild oat: 0 to 10 scale
In short: as §1

rape = format: in vivo, Brassica napus; settings: for Plant response rating, Rape: 0 to 10 scale
In short: as §1

cotton = format: in vivo, Gossypium hirsutum; settings: for Plant response rating, Cotton: 0 to 10 scale
In short: as §1

barnyardgrass = format: in vivo, Echinochloa crus-galli; settings: for Plant response rating, Barnyardgrass: 0 to 10 scale
In short: as §1

lambsquarters = format: in vivo, Chenopodium album; settings: for Plant response rating, Lambsquarter: 0 to 10 scale
In short: as §1

wild buckwheat = format: in vivo, Polygonum convolvulus; settings: for Plant response rating, Wild buckwheat: 0 to 10 scale
In short: as §1

wheat = format: in vivo, Triticum aestivum; settings: for Plant response rating, Wheat: 0 to 10 scale
In short: as §1

## CCOC(=O)c1cc(-c2nn3c(c2Cl)CCCC3)c(F)cc1Cl [Compound 78]
Giant foxtail; POSTEMERGENCE, Rate 50 g/ha
  Plant response rating, Giant foxtail: 4
Giant foxtail; PREEMERGENCE, Rate 50 g/ha
  Plant response rating, Giant foxtail: 2
Giant foxtail; PREEMERGENCE, Rate 200 g/ha
  Plant response rating (0 to 10 scale), Giant foxtail: 9
Giant foxtail; Rate 200 g/ha, POSTEMERGENCE
  Plant response rating, Giant foxtail: 6
crabgrass; POSTEMERGENCE, Rate 50 g/ha
  Plant response rating, Crabgrass: 4
crabgrass; PREEMERGENCE, Rate 50 g/ha
  Plant response rating, Crabgrass: 2
crabgrass; PREEMERGENCE, Rate 200 g/ha
  Plant response rating (0 to 10 scale), Crabgrass: 8
crabgrass; Rate 200 g/ha, POSTEMERGENCE
  Plant response rating, Crabgrass: 5
sorghum; POSTEMERGENCE, Rate 50 g/ha
  Plant response rating, Sorghum: 4
sorghum; PREEMERGENCE, Rate 50 g/ha
  Plant response rating, Sorghum: 0
sorghum; PREEMERGENCE, Rate 200 g/ha
  Plant response rating (0 to 10 scale), Sorghum: 3
sorghum; Rate 200 g/ha, POSTEMERGENCE
  Plant response rating, Sorghum: 7
blackgrass; POSTEMERGENCE, Rate 50 g/ha
  Plant response rating, Blackgrass: 4
blackgrass; PREEMERGENCE, Rate 50 g/ha
  Plant response rating, Blackgrass: 4
blackgrass; PREEMERGENCE, Rate 200 g/ha
  Plant response rating (0 to 10 scale), Blackgrass: 7
blackgrass; Rate 200 g/ha, POSTEMERGENCE
  Plant response rating, Blackgrass: 7
cocklebur; POSTEMERGENCE, Rate 50 g/ha
  Plant response rating, Cocklebur: 8
cocklebur; PREEMERGENCE, Rate 50 g/ha
  Plant response rating, Cocklebur: 0
cocklebur; PREEMERGENCE, Rate 200 g/ha
  Plant response rating (0 to 10 scale), Cocklebur: 0
cocklebur; Rate 200 g/ha, POSTEMERGENCE
  Plant response rating, Cocklebur: 10
Sugar beet; POSTEMERGENCE, Rate 50 g/ha
  Plant response rating, Sugar beet: 10
Sugar beet; PREEMERGENCE, Rate 50 g/ha
  Plant response rating, Sugar beet: 9
Sugar beet; PREEMERGENCE, Rate 200 g/ha
  Plant response rating (0 to 10 scale), Sugar beet: 10
Sugar beet; Rate 200 g/ha, POSTEMERGENCE
  Plant response rating, Sugar beet: 10
cheatgrass; POSTEMERGENCE, Rate 50 g/ha
  Plant response rating, Cheatgrass: 2
cheatgrass; PREEMERGENCE, Rate 50 g/ha
  Plant response rating, Cheatgrass: 2
cheatgrass; PREEMERGENCE, Rate 200 g/ha
  Plant response rating (0 to 10 scale), Cheatgrass: 4
cheatgrass; Rate 200 g/ha, POSTEMERGENCE
  Plant response rating, Cheatgrass: 7
soybean; POSTEMERGENCE, Rate 50 g/ha
  Plant response rating, Soybean: 10
soybean; PREEMERGENCE, Rate 50 g/ha
  Plant response rating, Soybean: 0
soybean; PREEMERGENCE, Rate 200 g/ha
  Plant response rating (0 to 10 scale), Soybean: 1
soybean; Rate 200 g/ha, POSTEMERGENCE
  Plant response rating, Soybean: 9
rice; POSTEMERGENCE, Rate 50 g/ha
  Plant response rating, Rice: 3
rice; PREEMERGENCE, Rate 50 g/ha
  Plant response rating, Rice: 0
rice; PREEMERGENCE, Rate 200 g/ha
  Plant response rating (0 to 10 scale), Rice: 2
rice; Rate 200 g/ha, POSTEMERGENCE
  Plant response rating, Rice: 6
corn; POSTEMERGENCE, Rate 50 g/ha
  Plant response rating, Corn: 7
corn; PREEMERGENCE, Rate 50 g/ha
  Plant response rating, Corn: 0
corn; PREEMERGENCE, Rate 200 g/ha
  Plant response rating (0 to 10 scale), Corn: 0
corn; Rate 200 g/ha, POSTEMERGENCE
  Plant response rating, Corn: 9
velvetleaf; POSTEMERGENCE, Rate 50 g/ha
  Plant response rating, Velvetleaf: 10
velvetleaf; PREEMERGENCE, Rate 50 g/ha
  Plant response rating, Velvetleaf: 10
velvetleaf; PREEMERGENCE, Rate 200 g/ha
  Plant response rating (0 to 10 scale), Velvetleaf: 10
velvetleaf; Rate 200 g/ha, POSTEMERGENCE
  Plant response rating, Velvetleaf: 10
Purple nutsedge; POSTEMERGENCE, Rate 50 g/ha
  Plant response rating, Nutsedge: 1
Purple nutsedge; PREEMERGENCE, Rate 50 g/ha
  Plant response rating, Nutsedge: 0
Purple nutsedge; PREEMERGENCE, Rate 200 g/ha
  Plant response rating (0 to 10 scale), Nutsedge: 0
Purple nutsedge; Rate 200 g/ha, POSTEMERGENCE
  Plant response rating, Nutsedge: 2
barley; POSTEMERGENCE, Rate 50 g/ha
  Plant response rating, Barley: 3
barley; PREEMERGENCE, Rate 50 g/ha
  Plant response rating, Barley: 2
barley; PREEMERGENCE, Rate 200 g/ha
  Plant response rating (0 to 10 scale), Barley: 0
barley; Rate 200 g/ha, POSTEMERGENCE
  Plant response rating, Barley: 5
chickweed; POSTEMERGENCE, Rate 50 g/ha
  Plant response rating, Chickweed: 6
chickweed; PREEMERGENCE, Rate 50 g/ha
  Plant response rating, Chickweed: 6
chickweed; PREEMERGENCE, Rate 200 g/ha
  Plant response rating (0 to 10 scale), Chickweed: 8
chickweed; Rate 200 g/ha, POSTEMERGENCE
  Plant response rating, Chickweed: 10
bedstraw; POSTEMERGENCE, Rate 50 g/ha
  Plant response rating, Bedstraw: 6
bedstraw; PREEMERGENCE, Rate 50 g/ha
  Plant response rating, Bedstraw: 2
bedstraw; PREEMERGENCE, Rate 200 g/ha
  Plant response rating (0 to 10 scale), Bedstraw: 9
bedstraw; Rate 200 g/ha, POSTEMERGENCE
  Plant response rating, Bedstraw: 9
morningglory; POSTEMERGENCE, Rate 50 g/ha
  Plant response rating, Morningglory: 10
morningglory; PREEMERGENCE, Rate 50 g/ha
  Plant response rating, Morningglory: 0
morningglory; PREEMERGENCE, Rate 200 g/ha
  Plant response rating (0 to 10 scale), Morningglory: 10
morningglory; Rate 200 g/ha, POSTEMERGENCE
  Plant response rating, Morningglory: 10
Wild oat; POSTEMERGENCE, Rate 50 g/ha
  Plant response rating, Wild oat: 3
Wild oat; PREEMERGENCE, Rate 50 g/ha
  Plant response rating, Wild oat: 3
Wild oat; PREEMERGENCE, Rate 200 g/ha
  Plant response rating (0 to 10 scale), Wild oat: 6
Wild oat; Rate 200 g/ha, POSTEMERGENCE
  Plant response rating, Wild oat: 5
rape; POSTEMERGENCE, Rate 50 g/ha
  Plant response rating, Rape: 8
rape; PREEMERGENCE, Rate 50 g/ha
  Plant response rating, Rape: 4
rape; PREEMERGENCE, Rate 200 g/ha
  Plant response rating (0 to 10 scale), Rape: 9
rape; Rate 200 g/ha, POSTEMERGENCE
  Plant response rating, Rape: 10
cotton; POSTEMERGENCE, Rate 50 g/ha
  Plant response rating, Cotton: 9
cotton; PREEMERGENCE, Rate 50 g/ha
  Plant response rating, Cotton: 0
cotton; PREEMERGENCE, Rate 200 g/ha
  Plant response rating (0 to 10 scale), Cotton: 2
cotton; Rate 200 g/ha, POSTEMERGENCE
  Plant response rating, Cotton: 10
barnyardgrass; POSTEMERGENCE, Rate 50 g/ha
  Plant response rating, Barnyardgrass: 8
barnyardgrass; PREEMERGENCE, Rate 50 g/ha
  Plant response rating, Barnyardgrass: 2
barnyardgrass; PREEMERGENCE, Rate 200 g/ha
  Plant response rating (0 to 10 scale), Barnyardgrass: 6
barnyardgrass; Rate 200 g/ha, POSTEMERGENCE
  Plant response rating, Barnyardgrass: 9
lambsquarters; POSTEMERGENCE, Rate 50 g/ha
  Plant response rating, Lambsquarter: 10
lambsquarters; PREEMERGENCE, Rate 50 g/ha
  Plant response rating, Lambsquarter: 10
lambsquarters; PREEMERGENCE, Rate 200 g/ha
  Plant response rating (0 to 10 scale), Lambsquarter: 10
lambsquarters; Rate 200 g/ha, POSTEMERGENCE
  Plant response rating, Lambsquarter: 10
Wild buckwheat; POSTEMERGENCE, Rate 50 g/ha
  Plant response rating, Wild buckwheat: 10
Wild buckwheat; PREEMERGENCE, Rate 50 g/ha
  Plant response rating, Wild buckwheat: 9
Wild buckwheat; PREEMERGENCE, Rate 200 g/ha
  Plant response rating (0 to 10 scale), Wild buckwheat: 10
Wild buckwheat; Rate 200 g/ha, POSTEMERGENCE
  Plant response rating, Wild buckwheat: 10
wheat; PREEMERGENCE, Rate 50 g/ha
  Plant response rating, Wheat: 3
wheat; PREEMERGENCE, Rate 200 g/ha
  Plant response rating (0 to 10 scale), Wheat: 4
wheat; Rate 200 g/ha, POSTEMERGENCE
  Plant response rating, Wheat: 7
